Test results from patent US11110195B2, “Esculentin 1a derivatives and uses thereof” (University of Houston System, priority 2013, dated 2021).
Residues, ends and D or L forms follow the SMILES beside them.

Experiments:
HaCaT keratinocytes = system: HaCaT keratinocytes
Description: Cell viability is expressed as percentage with respect to the control (cells not treated with the peptide). Data points represent the mean of triplicate samples ±SEM.

in vitro = conditions: for Peptide Amount (%): 24 h, 37° C.; for remaining at 5 h, 0.575 mM / remaining at 24 h, 0.575 mM: human
Method: A total of 125 μl of a 0.92 mM solution of each peptide was incubated at 37° C. with 20 μl and 60 μl human serum. Samples were collected after 5 h and 24 h of incubation, precipitated with 200 μl methanol, and centrifuged for 2 min at 10,000 g.
The crude solution was then analyzed by high-performance liquid chromatography (HPLC) and mass spectrometry. HPLC was performed with a Vydac C18 column, and the crude solution was diluted 5 times with 0.1% trifluoroacetic acid before injection and monitored at 280 nm.

[1] = system: human telomerase immortalized corneal epithelial cells (hTCEpi); experiment: Wound healing (cell migration) assay, corneal epithelial cells; type: cell-based; conditions: hTCEpi monolayer
Method: The percentage of cell-covered area at each time point was determined and is reported on the y-axis. Control (Ctrl) represents cells not treated with the peptide. All data are the mean of at least three independent experiments ±SE.
To determine cell migration after treatment with Esc-1a(1-21)NH2, a wound healing assay was performed using human telomerase immortalized corneal epithelial cells (hTCEpi) (FIG. 9). Cells were cultured in Keratinocyte growth Medium-2 supplemented with growth factors and Normocin […] (KGM-2g). Cell migration was studied as follows: hTCEpi cells (70,000) suspended in KGM-2g were seeded on each side of ibidi culture inserts for live cell analysis (Ibidi, Munich, Germany). Inserts were placed into 35 mm dishes and incubated at 37° C. and 5% CO2 to allow cells grow to confluence. Afterwards, inserts were removed with sterile tweezers to create a cell-free area (“wound”) of approximately 500 μm; after a wash with 1 ml of PBS, 1 ml of Dulbecco's modified Eagle's medium (DMEM) supplemented with 4 mM L-glutamine, 5% fetal bovine serum (FBS) and the peptide at different concentrations was added. The dishes with inserts were placed in an appropriate incubator and the cells were allowed to migrate. […] The percentage of cell-covered area at each time was determined by WIMASIS Image Analysis program. […]

P. aeruginosa ATCC 19660 = experiment: Bactericidal activity in the presence of basal human tears; type: cell-based, Pseudomonas aeruginosa; conditions: 10 μM peptide, within 30 minutes, 70% (v/v) basal tears
Method: FIGS. 2A-2B show the effects of human basal tears on the bactericidal activity of Esc-1a(1-21)NH2 against P. aeruginosa ATCC 27853 (FIG. 2A) and ATCC 19660 (FIG. 2B). Bacterial cells were incubated with the peptide in the presence of different concentrations of tears collected from eighteen consenting adult volunteers with normal ocular surface and pooled. Aliquots were withdrawn for cell counting at different time intervals. Mean data (n=3), expressed as the percentage of bacteria killed by the peptide are shown. *Indicates significant difference, p<0.05.
2×10^6 CFU/ml P. aeruginosa (ATCC 27853 or ATCC 19660) were incubated with 1-20 μM Esc-1a(1-21)NH2 in the presence of 50% or 70% v/v tears and aliquots withdrawn, plated and counted after 30, 90 and 120 minutes (n=3).

[2] = MTT viability assay, Raw 264.7 macrophages; conditions: mouse, Raw 264.7 macrophages
Method: (§1) Cell viability is expressed as percentage with respect to the control (cells not treated with the peptides). Data points represent the mean of triplicate samples ±SEM. […] The levels of statistical significance between the two peptides are indicated as follows: **p<0.01, ***p<0.001.
(§2) Cells were plated in wells of a microtiter plate, at 4×10^4 cells/well in DMEM supplemented with 2 mM glutamine and 2% FBS (for A549 cells) or DMEM containing 2 mM glutamine, non-essential amino acids (NEAA), sodium pyruvate and 2% FBS (for Raw 264.7 macrophages). After overnight incubation at 37° C. in a 5% CO2 atmosphere, the medium was replaced with 100 μl fresh serum-free medium supplemented with the peptides at different concentrations. After 24 h of peptide treatment, cell viability was determined by a MTT assay.

Raw 264.7 macrophages = experiment: MTT viability assay, Raw 264.7 macrophages; conditions: 128 μM, 24 h incubation
Method: as §1, §2

[3] = system: A549 lung epithelial cells; experiment: Wound healing assay, A549 lung epithelial cells; type: cell-based, human; conditions: A549 monolayer
Method: The percentage of cell-covered area at each time point is reported on the y-axis. Control (Ctrl) represents cells not treated with the peptides. All data are the mean of at least three independent experiments ±SEM. […] Both peptides were able to stimulate the closure of the gap produced in the monolayer of A549 cells, with the optimal concentration allowing the almost complete coverage of the wound field equal to 10 μM (for the wild type peptide, FIG. 13A) or 4 μM (for the diastereomer, FIG. 13B) within approximately 24 hours or 20 hours, respectively.
As shown in FIGS. 13A-13B, Esc-1a(1-21)NH2 and its diastereomer both stimulated wound closure although at concentrations much higher than were required to induce a similar effect in human corneal epithelial cells. This may reflect cell specific differences.

HaCaT cells = experiment: Wound healing assay, HaCaT cells; type: cell-based, human; conditions: HaCaT monolayer
Method: The percentage of cell-covered area at each time point is reported on the y-axis. Control (Ctrl) represents cells not treated with the peptide. All data are the mean of at least three independent experiments ±SEM. […] The optimal concentration allowing gap closure was 0.25 μM.
The experimental procedure is similar to that described in Example 6 with the following two differences: (i) 40,000 cells suspended in DMEM supplemented with 4 mM glutamine and 10% FBS were seeded on each side of the ibidi culture inserts instead of 70,000 cells in KGM-2g as for corneal epithelial cells; (ii) serum-free medium was used in the wound healing assay instead of medium supplemented with 5% FBS as for corneal epithelial cells. […] Overall, the experiments indicate that Esc-1a(1-21)NH2 can stimulate wound closure in different types of mammalian cells but this is with a different kinetic or optimal concentration and thus a stereospecific mechanism involving a direct/indirect activation of different signalling transduction cascades (depending on the selected cell type) likely subtends such events.

For `CC[C@H](C)[C@H](NC(=O)CN)C(=O)N[C@@H](Cc1ccccc1)C(=O)N[C@@H](CO)C(=O)N[C@@H](CCCCN)C(=O)N[C@@H](CC(C)C)C(=O)N[C@@H](C)C(=O)NCC(=O)N[C@@H](CCCCN)C(=O)N[C@@H](CCCCN)C(=O)N[C@H](C(=O)N[C@@H](CCCCN)C(=O)N[C@@H](CC(N)=O)C(=O)N[C@@H](CC(C)C)C(=O)N[C@@H](CC(C)C)C(=O)N[C@H](C(=O)N[C@@H](CO)C(=O)NCC(=O)N[C@@H](CC(C)C)C(=O)N[C@@H](CCCCN)C(=O)NCC(N)=O)[C@@H](C)CC)[C@@H](C)CC` [Esc-1a(1-21)NH2] (H-GIFSKLAGKKIKNLLISGLKG-NH2; N-terminus assumed), the “reduction in the number of metabolically-active keratinocytes” value (HaCaT keratinocytes; 2 h treatment, 1-64 μM) was “did not show any remarkable reduction”, the “reduction in the percentage of metabolically-active cells” value (HaCaT keratinocytes; 24 h, 32 μM and 64 μM) was “approximately 20%” and the “Peptide Amount (%)” value (in vitro; 10% human fresh serum) was “approximately 22.19%”. For the same compound, the “Peptide Amount (%)” value (in vitro; 30% human fresh serum) was roughly 11.5%, the remaining at 5 h, 0.575 mM (in vitro; 10% human fresh serum) was 44.4% and the remaining at 24 h, 0.575 mM (in vitro; 10% human fresh serum) was 22.2%. The remaining at 5 h, 0.575 mM (in vitro; 30% human fresh serum) was 20.9%, the remaining at 24 h, 0.575 mM (in vitro; 30% human fresh serum) was 11.5% and the “optimal concentration allowing complete coverage of the wound field” value [1] was 0.005 µM. For the same compound, the “time to maximum cell-covered area after peptide addition” value [1] was 9 to 12 h, the killing of bacteria (P. aeruginosa ATCC 19660) was “complete killing” and the CC50 at 24 h [2] was 64 µM. The killing (Raw 264.7 macrophages) was 100%, the “optimal concentration allowing almost complete coverage of the wound field” value [3] was 10 µM and the “time to almost complete coverage of the wound field” value ([3]; at optimal concentration) was “approximately 24 hours”. For the same compound, the “optimal concentration allowing gap closure” value (HaCaT cells) was 0.25 µM and the “time to coverage of the wound-field” value (HaCaT cells; bell-shaped dose-response) was 9 to 12 h.
